Test results reported in publication PMC7180948, “New Insights into 4-Anilinoquinazolines as Inhibitors of Cardiac Troponin I–Interacting Kinase (TNNi3K)” (Molecules, 2020).

Assays:
Experiment in all cases: biochemical
Set-up in all cases: KINOMEscan competition binding panel (Eurofins DiscoverX), single concentration, percent inhibition
Conditions in all cases: read-out: 15 at 1 µM % inhibition
[1] = target: T1, ABL1(Q252H)-nonphosphorylated (Homo sapiens, UniProt P00519, Q252H)
T1 construct: nonphosphorylated
How it was run: (§1)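 Compounds were submitted at 1 µM to a KINOMEscan assay covering more than 400 human kinases. The screen served to define the selectivity profile.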

ACVR2A = ACVR2A (Homo sapiens, UniProt P27037)
How it was run: as §1

ALK(L1196M) = ALK(L1196M) (Homo sapiens, UniProt Q9UM73, L1196M)
How it was run: as §1

BRSK2 = BRSK2 (Homo sapiens, UniProt Q8IWQ3)
How it was run: as §1

CAMK2A = CAMK2A (Homo sapiens, UniProt Q9UQM7)
How it was run: as §1

CDK3 = CDK3 (Homo sapiens, UniProt Q00526)
How it was run: as §1

CDK5 = CDK5 (Homo sapiens, UniProt Q00535)
How it was run: as §1

CSNK1G1 = CSNK1G1 (Homo sapiens, UniProt Q9HCP0)
How it was run: as §1

DMPK = DMPK (Homo sapiens, UniProt Q09013)
How it was run: as §1

ERK1 = target: T2, ERK1 (Homo sapiens, UniProt P27361)
T2 construct: gene MAPK3
How it was run: as §1

IGF1R = IGF1R (Homo sapiens, UniProt P08069)
How it was run: as §1

[2] = target: T3, JAK1(JH2domain-pseudokinase) (Homo sapiens, UniProt P23458)
T3 construct: JH2domain-pseudokinase
How it was run: as §1

LKB1 = target: T4, LKB1 (Homo sapiens, UniProt Q15831)
T4 construct: gene STK11
How it was run: as §1

MAP3K3 = MAP3K3 (Homo sapiens, UniProt Q99759)
How it was run: as §1

MARK3 = MARK3 (Homo sapiens, UniProt P27448)
How it was run: as §1

NDR1 = target: T5, NDR1 (Homo sapiens, UniProt Q15208)
T5 construct: gene STK38
How it was run: as §1

PAK4 = PAK4 (Homo sapiens, UniProt O96013)
How it was run: as §1

PLK3 = PLK3 (Homo sapiens, UniProt Q9H4B4)
How it was run: as §1

PRKCQ = PRKCQ (Homo sapiens, UniProt Q04759)
How it was run: as §1

PRKG1 = PRKG1 (Homo sapiens, UniProt Q13976)
How it was run: as §1

[3] = target: T6, RPS6KA4(Kin.Dom.2-C-terminal) (Homo sapiens, UniProt O75676)
T6 construct: Kin.Dom.2-C-terminal
How it was run: as §1

[4] = target: T7, RSK1(Kin.Dom.2-C-terminal) (Homo sapiens, UniProt Q15418)
T7 construct: gene RPS6KA1; Kin.Dom.2-C-terminal
How it was run: as §1

STK16 = STK16 (Homo sapiens, UniProt O75716)
How it was run: as §1

WNK1 = WNK1 (Homo sapiens, UniProt Q9H4A3)
How it was run: as §1

Chain of CAMK2A (Q9UQM7 whole entry): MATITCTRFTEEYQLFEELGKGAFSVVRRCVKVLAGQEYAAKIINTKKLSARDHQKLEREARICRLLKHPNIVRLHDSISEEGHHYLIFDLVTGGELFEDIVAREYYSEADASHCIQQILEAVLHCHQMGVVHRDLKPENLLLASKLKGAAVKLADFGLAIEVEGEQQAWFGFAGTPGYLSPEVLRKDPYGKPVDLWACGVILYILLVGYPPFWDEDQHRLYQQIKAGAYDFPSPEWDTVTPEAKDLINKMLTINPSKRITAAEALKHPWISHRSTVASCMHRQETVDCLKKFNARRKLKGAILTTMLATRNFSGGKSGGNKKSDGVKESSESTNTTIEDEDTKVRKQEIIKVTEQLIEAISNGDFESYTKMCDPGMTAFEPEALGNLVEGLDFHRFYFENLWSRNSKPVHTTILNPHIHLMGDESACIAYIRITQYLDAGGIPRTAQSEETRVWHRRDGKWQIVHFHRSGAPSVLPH
Chain of MAP3K3 (Q99759 whole entry): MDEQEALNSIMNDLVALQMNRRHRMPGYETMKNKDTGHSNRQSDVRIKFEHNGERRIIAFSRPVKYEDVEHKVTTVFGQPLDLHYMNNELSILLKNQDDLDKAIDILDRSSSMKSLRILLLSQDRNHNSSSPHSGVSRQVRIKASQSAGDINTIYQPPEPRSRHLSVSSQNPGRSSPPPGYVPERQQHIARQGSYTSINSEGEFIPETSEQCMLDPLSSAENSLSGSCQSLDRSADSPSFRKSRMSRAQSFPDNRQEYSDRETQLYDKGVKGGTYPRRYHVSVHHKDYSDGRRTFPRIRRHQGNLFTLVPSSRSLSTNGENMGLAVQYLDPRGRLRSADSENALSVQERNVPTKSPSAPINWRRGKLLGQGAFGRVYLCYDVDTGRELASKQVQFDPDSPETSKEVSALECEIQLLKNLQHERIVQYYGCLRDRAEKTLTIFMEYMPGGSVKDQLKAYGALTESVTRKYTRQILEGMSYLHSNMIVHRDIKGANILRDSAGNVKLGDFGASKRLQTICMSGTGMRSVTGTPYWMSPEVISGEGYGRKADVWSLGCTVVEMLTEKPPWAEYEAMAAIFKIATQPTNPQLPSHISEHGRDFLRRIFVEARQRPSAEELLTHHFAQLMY
Chain of CDK3 (Q00526 whole entry): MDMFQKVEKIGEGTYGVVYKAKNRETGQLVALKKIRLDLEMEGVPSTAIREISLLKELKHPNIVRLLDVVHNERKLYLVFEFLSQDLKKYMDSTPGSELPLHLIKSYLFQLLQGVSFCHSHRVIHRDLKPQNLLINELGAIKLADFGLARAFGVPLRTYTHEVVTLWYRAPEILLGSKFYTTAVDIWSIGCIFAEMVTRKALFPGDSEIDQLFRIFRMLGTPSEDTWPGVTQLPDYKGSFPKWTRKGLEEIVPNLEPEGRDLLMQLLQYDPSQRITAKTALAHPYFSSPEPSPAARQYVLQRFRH
Chain of PLK3 (Q9H4B4 whole entry): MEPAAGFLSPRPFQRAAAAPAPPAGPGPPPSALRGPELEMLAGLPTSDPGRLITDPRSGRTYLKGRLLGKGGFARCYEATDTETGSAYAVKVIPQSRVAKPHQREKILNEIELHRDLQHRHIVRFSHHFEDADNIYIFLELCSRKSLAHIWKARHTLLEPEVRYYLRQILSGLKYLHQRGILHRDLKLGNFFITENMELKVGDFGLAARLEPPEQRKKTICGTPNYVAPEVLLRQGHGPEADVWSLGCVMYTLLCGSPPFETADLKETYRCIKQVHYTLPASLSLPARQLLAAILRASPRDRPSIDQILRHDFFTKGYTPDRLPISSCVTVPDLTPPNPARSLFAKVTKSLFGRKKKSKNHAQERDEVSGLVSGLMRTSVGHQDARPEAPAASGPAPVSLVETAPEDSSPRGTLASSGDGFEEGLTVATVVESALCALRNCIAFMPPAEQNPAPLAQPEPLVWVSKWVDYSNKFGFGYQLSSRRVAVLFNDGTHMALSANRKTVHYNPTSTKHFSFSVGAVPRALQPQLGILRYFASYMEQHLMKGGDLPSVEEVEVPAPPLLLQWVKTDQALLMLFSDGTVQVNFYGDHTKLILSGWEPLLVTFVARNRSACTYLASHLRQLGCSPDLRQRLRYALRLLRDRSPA
Chain of CSNK1G1 (Q9HCP0 whole entry): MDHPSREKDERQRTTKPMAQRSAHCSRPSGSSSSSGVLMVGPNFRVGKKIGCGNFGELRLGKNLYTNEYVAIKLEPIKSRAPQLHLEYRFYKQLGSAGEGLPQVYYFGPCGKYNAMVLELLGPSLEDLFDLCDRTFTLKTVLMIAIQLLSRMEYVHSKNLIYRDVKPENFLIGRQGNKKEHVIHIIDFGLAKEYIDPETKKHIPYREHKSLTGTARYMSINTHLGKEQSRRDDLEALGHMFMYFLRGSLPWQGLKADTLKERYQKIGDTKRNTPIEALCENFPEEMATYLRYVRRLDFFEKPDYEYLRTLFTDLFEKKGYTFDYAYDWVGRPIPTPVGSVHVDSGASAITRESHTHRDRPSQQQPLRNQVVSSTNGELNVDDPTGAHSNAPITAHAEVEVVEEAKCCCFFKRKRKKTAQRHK
Chain of MARK3 (P27448 whole entry): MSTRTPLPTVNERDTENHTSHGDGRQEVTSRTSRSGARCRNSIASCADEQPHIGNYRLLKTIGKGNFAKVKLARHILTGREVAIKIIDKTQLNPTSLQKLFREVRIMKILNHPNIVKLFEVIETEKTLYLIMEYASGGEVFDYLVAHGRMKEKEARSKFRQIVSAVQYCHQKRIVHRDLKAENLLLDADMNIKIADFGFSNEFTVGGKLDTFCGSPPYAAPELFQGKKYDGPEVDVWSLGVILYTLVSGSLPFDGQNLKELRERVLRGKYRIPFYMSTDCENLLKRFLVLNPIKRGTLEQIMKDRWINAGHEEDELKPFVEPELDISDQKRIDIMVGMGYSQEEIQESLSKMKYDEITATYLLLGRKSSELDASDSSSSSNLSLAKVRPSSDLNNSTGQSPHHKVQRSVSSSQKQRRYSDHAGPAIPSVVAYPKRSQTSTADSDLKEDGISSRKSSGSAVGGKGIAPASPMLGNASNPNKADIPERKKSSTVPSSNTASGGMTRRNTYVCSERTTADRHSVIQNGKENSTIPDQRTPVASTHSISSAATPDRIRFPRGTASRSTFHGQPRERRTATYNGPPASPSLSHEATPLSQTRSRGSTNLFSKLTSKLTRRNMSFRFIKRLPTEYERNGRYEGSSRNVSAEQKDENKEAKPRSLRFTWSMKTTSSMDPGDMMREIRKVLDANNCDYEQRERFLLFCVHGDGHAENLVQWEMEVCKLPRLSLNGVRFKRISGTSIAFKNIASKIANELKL
T3 sequence (P23458 whole entry): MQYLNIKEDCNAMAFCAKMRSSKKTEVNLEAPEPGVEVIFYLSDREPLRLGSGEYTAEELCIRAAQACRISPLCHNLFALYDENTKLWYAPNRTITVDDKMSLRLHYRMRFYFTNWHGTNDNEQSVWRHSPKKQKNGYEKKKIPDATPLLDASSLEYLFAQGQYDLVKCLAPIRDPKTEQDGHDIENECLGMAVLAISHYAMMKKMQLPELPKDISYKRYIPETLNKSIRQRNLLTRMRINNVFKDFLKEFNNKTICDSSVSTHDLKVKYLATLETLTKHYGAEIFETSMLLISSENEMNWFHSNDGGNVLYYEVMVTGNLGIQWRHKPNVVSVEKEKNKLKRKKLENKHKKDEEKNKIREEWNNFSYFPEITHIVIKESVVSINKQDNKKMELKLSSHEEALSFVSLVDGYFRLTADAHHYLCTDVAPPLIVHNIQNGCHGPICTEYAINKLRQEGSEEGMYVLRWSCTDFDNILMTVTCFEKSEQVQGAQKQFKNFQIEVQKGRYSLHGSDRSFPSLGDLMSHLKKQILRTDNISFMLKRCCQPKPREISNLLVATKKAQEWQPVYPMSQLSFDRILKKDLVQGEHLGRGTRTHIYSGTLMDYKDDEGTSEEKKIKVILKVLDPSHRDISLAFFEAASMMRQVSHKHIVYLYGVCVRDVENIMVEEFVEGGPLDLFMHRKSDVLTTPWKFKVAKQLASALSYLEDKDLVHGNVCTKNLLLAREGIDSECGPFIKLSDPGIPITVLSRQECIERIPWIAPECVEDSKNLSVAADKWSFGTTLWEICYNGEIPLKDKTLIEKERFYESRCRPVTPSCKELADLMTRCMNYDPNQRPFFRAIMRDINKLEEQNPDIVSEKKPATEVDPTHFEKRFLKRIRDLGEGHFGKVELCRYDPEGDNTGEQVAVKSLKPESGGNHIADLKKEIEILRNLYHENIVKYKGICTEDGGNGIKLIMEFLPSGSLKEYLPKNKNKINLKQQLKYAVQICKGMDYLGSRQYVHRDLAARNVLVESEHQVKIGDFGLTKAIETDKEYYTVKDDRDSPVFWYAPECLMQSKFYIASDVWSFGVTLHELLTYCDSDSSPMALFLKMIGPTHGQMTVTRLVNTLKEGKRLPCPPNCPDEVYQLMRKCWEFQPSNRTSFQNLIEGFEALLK
Chain of ACVR2A (P27037 whole entry): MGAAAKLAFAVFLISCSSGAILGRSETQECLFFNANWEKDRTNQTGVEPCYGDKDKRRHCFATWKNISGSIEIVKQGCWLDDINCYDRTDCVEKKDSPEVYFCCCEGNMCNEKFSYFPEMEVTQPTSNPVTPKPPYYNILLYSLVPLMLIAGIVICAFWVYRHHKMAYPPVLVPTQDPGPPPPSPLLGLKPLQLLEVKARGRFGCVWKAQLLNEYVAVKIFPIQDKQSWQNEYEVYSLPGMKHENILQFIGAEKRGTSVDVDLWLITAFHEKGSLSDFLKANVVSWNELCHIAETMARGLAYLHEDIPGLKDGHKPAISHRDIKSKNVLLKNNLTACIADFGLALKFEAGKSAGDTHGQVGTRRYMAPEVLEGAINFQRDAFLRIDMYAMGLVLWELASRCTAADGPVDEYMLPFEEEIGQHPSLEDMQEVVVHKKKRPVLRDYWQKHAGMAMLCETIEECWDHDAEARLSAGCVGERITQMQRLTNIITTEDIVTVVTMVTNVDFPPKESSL

inhibition at 1 µM [1]: 33%
inhibition at 1 µM (ACVR2A): 0%
inhibition at 1 µM (ALK(L1196M)): 12%
inhibition at 1 µM (BRSK2): 21%
inhibition at 1 µM (CAMK2A): 4%
inhibition at 1 µM (CDK3): 56%
inhibition at 1 µM (CDK5): 3%
inhibition at 1 µM (CSNK1G1): 0%
inhibition at 1 µM (DMPK): 3%
inhibition at 1 µM (ERK1): 0%
inhibition at 1 µM (IGF1R): 0%
inhibition at 1 µM [2]: 26%
inhibition at 1 µM (LKB1): 0%
inhibition at 1 µM (MAP3K3): 44%
inhibition at 1 µM (MARK3): 0%
inhibition at 1 µM (NDR1): 13%
inhibition at 1 µM (PAK4): 0%
inhibition at 1 µM (PLK3): 8%
inhibition at 1 µM (PRKCQ): 16%
inhibition at 1 µM (PRKG1): 0%
inhibition at 1 µM [3]: 16%
inhibition at 1 µM [4]: 5%
inhibition at 1 µM (STK16): 2%
inhibition at 1 µM (WNK1): 22%
SMILES: CNS(=O)(=O)c1ccc(N(C)C)c(Nc2nc(C)nc3cc(OC)c(OC)cc23)c1 [compound 15, 3-((6,7-dimethoxy-2-methylquinazolin-4-yl)amino)-4-(dimethylamino)-N-methylbenzenesulfonamide]
